Experimental data as given in US20250213703A1, “HUMAN INTERLEUKIN 2-POLYETHYLENE GLYCOL CONJUGATE AND USE THEREOF” (Novocodex Biopharmaceuticals Co., Ltd., priority 2021, published 2025).
Blank lines part the entries; values can stand above or below the substance they belong to.

What was measured:
mouse liver cancer H22 = assay: Anti-tumor activity, H22 homograft tumor model; type: in vivo; conditions: Balb/c mice
Description: (§1) A cell suspension of 2×10^5/0.1 mL/mouse CT26.WT (purchased from […], product catalog number CRL-2638) and a cell suspension of 4×10^5/0.1 mL/mouse H22 (purchased from CCTCC, product catalog number GD00091) were subcutaneously inoculated into right backs of the mice. […] During the experiment, weights and tumor volumes of the animals were measured 3 times every week, and administration modes and experimental results were shown in Table 4.

[1] = mouse, in vivo, iv, 1 mg/kg
Description: The blood sample was placed at room temperature for 15 minutes and centrifuged at 6,800 g/min for 6 minutes to obtain serum. The plasma concentration in the serum was analyzed by the following method:
(1) Coating: 50 μL of 1 μg/mL working solution of Anti-IL-2 antibody (purchased from abcam, product catalog number: ab9618) was added into each well in a high-adsorption 96-well plate, and incubated at 2° C. to 8° C. overnight. (2) Washing: the liquid in the well was discarded, and the well was washed with 1 xPBST (0.05% Tween-20) for 3 times, according to 300 μL/well. (3) Sealing: a casein sealing solution (purchased from Thermo, product catalog number 37528) was added according to 200 μL/well, and allowed to stand at room temperature for 90 minutes. (4) Washing: the liquid in the well was discarded, and the well was washed with 1 xPBST for 3 times, according to 300 μL/well. […] (6) Washing: the liquid in the well was discarded, and the well was washed with 1×PBST for 3 times, according to 300 μL/well. (7) Primary antibody: 50 μL of 0.25 μg/mL working solution of IL-2 Monoclonal Antibody (BG5) and Biotin (purchased from Invitrogen, product catalog number M600B) was added into each well, and allowed to stand at room temperature for 60 minutes. (8) Washing: the liquid in the well was discarded, and the well was washed with 1×PBST for 3 times, according to 300 μL/well. (9) Secondary antibody: Pierce™ High Sensitivity Streptavidin-HRP (purchased from Thermo, product catalog number 21130) was diluted for 4,000 times with a casein sealing solution, and 50 μL was added into each well, and allowed to stand at room temperature for 60 minutes. (10) Washing: the liquid in the well was discarded, and the well was washed with 1×PBST for 4 times, according to 300 μL/well. […] (12) Stopping and reading: 2 M sulfuric acid stop solution was added 25 minutes later, and light absorption values at 450 nm and 650 nm were read on a microplate reader (purchased from Perkin Elmer, model EnSight).

[2] = tested on: CD8^+ T cells and CD4^+ Treg cells; assay: Immune cell population in CT26.WT tumor tissue (flow cytometry); type: in vivo, mouse; conditions: for CD8^+ T cells/CD4^+ Treg / Percentage of CD4^+ Treg in leucocytes / Percentage of CD8^+ T cells in leucocytes: 5th day, 2.0 mg/kg IV single dosage; for proportions of CD4^+ Treg cells compared with Quanqi rhIL2 / proportions of CD8^+ T cells compared with Quanqi rhIL2 / proportions of CD8^+ T/CD4^+ Treg compared with Quanqi rhIL2: in words
Description: A cell suspension of 2×10^5/0.1 mL/mouse CT26.WT was subcutaneously inoculated into right backs of the mice. […] On the 5th day, tumor tissue samples of various groups were collected for flow cytometry detection of changes in cell populations of CD8^+ T cells and CD4^+ Treg cells.

[3] = tested on: mouse colon cancer CT26.WT; assay: Anti-tumor activity, CT26.WT homograft tumor model; type: in vivo; conditions: Balb/c mice
Description: as §1

YT cells = assay: STAT5 phosphorylation assay (YT cells); type: cell-based, human; conditions: [EC50 YT/EC50 CTLL-2 of sample]/[EC50 YT/EC50 CTLL-2 of reference] × 100%
Text: In this method, two cell lines were adopted, wherein mouse CTLL-2 cells were a cell line containing IL-2Rαβγ, and human YT cells were a cell line containing IL-2Rβγ, and rhIL-2 activated the JAK-STAT signal pathway by binding with IL-2R on the cell surface. […] The lower the percentage change of EC50 ratio of YT cells/CTLL-2 cells was, the better the effect of promoting the immune function of the samples was, and on the contrary, the better the effect of inhibiting the immune function was.
The specific process was as follows: the mouse CTLL-2 cells (purchased from American Type Culture Collection) and the human YT cells were cultured in their own media (CTLL-2 cell medium: RPMI 1640+10% FBS+400 IU/mL rhIL-2, 2 mM L-glutamine and 1 mM sodium pyruvate; and YT cell medium: RPMI 1640+10% FBS+1 mm Non-Essential Amino Acids Solution (purchased from Gibco, product catalog number 11140050)) to a sufficient amount at condition of 37° C. and 5% carbon dioxide, and starved for 4 hours before detection, and then the cell density was adjusted to be 1×10^6 cells/mL for later use.

[4] = target: IL-2Rαβγ on mouse CTLL-2 cells (mouse (CTLL-2 cells)) (UniProt P01590); assay: cell-based or functional assay
Chain of IL-2Rαβγ on mouse CTLL-2 cells (mouse (CTLL-2 cells)) (P01590 22-268, chain 1 of 3): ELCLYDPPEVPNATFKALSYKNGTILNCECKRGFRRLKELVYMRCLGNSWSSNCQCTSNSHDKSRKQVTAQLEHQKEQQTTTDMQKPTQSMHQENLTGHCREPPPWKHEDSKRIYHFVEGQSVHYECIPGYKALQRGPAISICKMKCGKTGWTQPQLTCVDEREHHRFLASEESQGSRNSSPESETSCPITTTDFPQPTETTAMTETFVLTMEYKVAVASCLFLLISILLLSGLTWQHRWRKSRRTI
Chain of IL-2Rαβγ on mouse CTLL-2 cells (mouse (CTLL-2 cells)) (P16297 27-539, chain 2 of 3, further chain): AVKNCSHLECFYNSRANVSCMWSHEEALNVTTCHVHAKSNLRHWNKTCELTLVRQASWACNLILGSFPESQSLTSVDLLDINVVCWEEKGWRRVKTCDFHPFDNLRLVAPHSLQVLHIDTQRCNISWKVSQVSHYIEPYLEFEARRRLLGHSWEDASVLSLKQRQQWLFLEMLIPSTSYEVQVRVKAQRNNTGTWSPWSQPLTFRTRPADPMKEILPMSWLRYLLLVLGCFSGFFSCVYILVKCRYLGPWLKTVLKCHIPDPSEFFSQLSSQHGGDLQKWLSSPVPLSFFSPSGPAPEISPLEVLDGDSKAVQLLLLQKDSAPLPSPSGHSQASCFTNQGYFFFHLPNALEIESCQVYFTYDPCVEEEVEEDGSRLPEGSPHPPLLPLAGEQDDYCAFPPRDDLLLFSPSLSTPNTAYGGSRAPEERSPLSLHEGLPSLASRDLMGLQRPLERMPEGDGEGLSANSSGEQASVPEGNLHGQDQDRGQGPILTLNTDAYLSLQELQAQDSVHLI
Chain of IL-2Rαβγ on mouse CTLL-2 cells (mouse (CTLL-2 cells)) (P34902 23-369, chain 3 of 3, further chain): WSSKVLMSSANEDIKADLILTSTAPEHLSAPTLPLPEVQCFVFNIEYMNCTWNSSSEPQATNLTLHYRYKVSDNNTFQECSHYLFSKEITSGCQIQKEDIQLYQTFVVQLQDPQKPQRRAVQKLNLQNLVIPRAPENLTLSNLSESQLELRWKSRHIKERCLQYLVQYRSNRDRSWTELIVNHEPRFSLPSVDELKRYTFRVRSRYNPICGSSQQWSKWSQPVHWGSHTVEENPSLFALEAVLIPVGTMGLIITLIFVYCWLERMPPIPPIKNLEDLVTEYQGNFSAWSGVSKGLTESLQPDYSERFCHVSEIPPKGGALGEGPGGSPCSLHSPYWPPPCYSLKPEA

IL-2Rβγ = target: T1, IL-2Rβγ (Homo sapiens, UniProt P14784+P31785); conditions: moderate-affinity complex IL-2Rβγ; cited from earlier work
T1 sequence (P14784 27-551): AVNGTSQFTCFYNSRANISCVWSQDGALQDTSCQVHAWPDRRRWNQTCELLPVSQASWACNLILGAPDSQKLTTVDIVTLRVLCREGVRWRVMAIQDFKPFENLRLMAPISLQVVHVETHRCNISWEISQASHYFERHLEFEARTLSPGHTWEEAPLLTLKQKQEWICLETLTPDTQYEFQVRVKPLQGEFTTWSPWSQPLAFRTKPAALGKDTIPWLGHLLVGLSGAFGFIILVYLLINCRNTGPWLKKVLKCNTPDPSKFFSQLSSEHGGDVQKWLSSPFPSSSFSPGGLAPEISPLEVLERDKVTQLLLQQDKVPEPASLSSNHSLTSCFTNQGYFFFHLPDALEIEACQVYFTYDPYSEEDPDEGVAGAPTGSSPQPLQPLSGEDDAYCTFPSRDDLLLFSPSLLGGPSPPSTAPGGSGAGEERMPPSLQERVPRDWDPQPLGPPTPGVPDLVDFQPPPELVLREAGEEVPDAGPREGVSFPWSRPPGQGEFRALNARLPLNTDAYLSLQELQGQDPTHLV
T1 sequence (P31785 23-369): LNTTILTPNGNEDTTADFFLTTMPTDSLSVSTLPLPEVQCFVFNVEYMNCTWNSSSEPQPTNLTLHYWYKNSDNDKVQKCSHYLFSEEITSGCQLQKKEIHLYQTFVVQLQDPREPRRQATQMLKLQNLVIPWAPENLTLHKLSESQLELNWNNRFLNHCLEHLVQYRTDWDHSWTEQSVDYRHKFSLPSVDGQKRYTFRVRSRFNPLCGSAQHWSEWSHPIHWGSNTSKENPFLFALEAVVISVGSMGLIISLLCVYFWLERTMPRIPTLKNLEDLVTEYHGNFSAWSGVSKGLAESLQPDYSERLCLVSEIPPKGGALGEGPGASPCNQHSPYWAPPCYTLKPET

IL-2Rα = target: T2, IL-2Rα (Homo sapiens, UniProt P01589); conditions: low-affinity receptor IL-2Rα subunit; cited from earlier work
T2 sequence (P01589 22-272): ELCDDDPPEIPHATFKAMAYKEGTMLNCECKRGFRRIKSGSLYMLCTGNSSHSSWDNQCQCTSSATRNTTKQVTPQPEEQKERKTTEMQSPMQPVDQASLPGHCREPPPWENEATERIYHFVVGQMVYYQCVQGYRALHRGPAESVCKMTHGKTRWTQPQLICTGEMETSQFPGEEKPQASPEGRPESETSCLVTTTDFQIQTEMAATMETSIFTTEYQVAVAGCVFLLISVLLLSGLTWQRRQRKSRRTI

IL-2Rαβγ = target: T3, IL-2Rαβγ (Homo sapiens, UniProt P01589+P14784+P31785); conditions: high-affinity complex IL-2Rαβγ; cited from earlier work
T3 sequence (P01589 22-272): T2 sequence (P01589 22-272)
T3 sequence (P14784 27-551): T1 sequence (P14784 27-551)
T3 sequence (P31785 23-369): T1 sequence (P31785 23-369)

[5] = high dosage 5.0 mg/kg IV Q5D × 3
[6] = low dosage 0.7 mg/kg IV Q5D × 3

Percentage change of EC50 ratio of YT/CTLL-2 cells of 30 KD PEG-rhIL2 sample (YT cells): 6%
Substance: 30 KD PEG-rhIL2-Y45: rhIL-2 with unnatural amino acid NOPK at Y45 site, coupled via oxime bond with 30 KD aminoxy PEG
Average value ± standard error of tumor weight (mouse liver cancer H22; [5]): 0.4 g | TGITW (mouse liver cancer H22; [5]): 79% | Average value ± standard error of tumor weight (mouse liver cancer H22; [6]): 0.82 g | TGITW (mouse liver cancer H22; [6]): 57% | AUC0-t [1]: 168.141 µg·h/mL | MRT0-t [1]: 9.42 h | Vz [1]: 0.126 L/kg | CD8^+ T cells/CD4^+ Treg [2]: 23.2 | Percentage of CD4^+ Treg in leucocytes [2]: 1.3% | Percentage of CD8^+ T cells in leucocytes [2]: 30.1% | proportions of CD4^+ Treg cells compared with Quanqi rhIL2 [2]: significantly decreased | proportions of CD8^+ T cells compared with Quanqi rhIL2 [2]: significantly increased | proportions of CD8^+ T/CD4^+ Treg compared with Quanqi rhIL2 [2]: significantly increased | Average value ± standard error of tumor weight [3, 5]: 0.22 g | TGITW [3, 5]: 92% | Average value ± standard error of tumor weight [3, 6]: 0.93 g | TGITW [3, 6]: 66%

Percentage change of EC50 ratio of YT/CTLL-2 cells of 30 KD PEG-rhIL2 sample (YT cells): 53%
Substance: 30 KD PEG-rhIL2-K35: rhIL-2 with unnatural amino acid NOPK at K35 site, coupled via oxime bond with 30 KD aminoxy PEG

STAT5 phosphorylation assay (CTLL-2 cells) EC50 [4]: 0.12 ng/mL
Substance: reference rhIL-2 (purchased from Beijing Solarbio Science & Technology Co., Ltd., catalog number: P00020) (from UniProt P60568 21-153) (ligand)

Percentage change of EC50 ratio of YT/CTLL-2 cells of 30 KD PEG-rhIL2 sample (YT cells): 91%
Substance: 30 KD PEG-rhIL2-P65: rhIL-2 with unnatural amino acid NOPK at P65 site, coupled via oxime bond with 30 KD aminoxy PEG

Substance: IL-2: mature human IL-2 with 133 amino acids, background description
Kd (IL-2Rβγ): 1 nM | Kd (IL-2Rα): 10 nM | Kd (IL-2Rαβγ): 0.01 nM

Percentage change of EC50 ratio of YT/CTLL-2 cells of 30 KD PEG-rhIL2 sample (YT cells): 43%
Substance: 30 KD PEG-rhIL2-T41: rhIL-2 with unnatural amino acid NOPK at T41 site, coupled via oxime bond with 30 KD aminoxy PEG
Average value ± standard error of tumor weight (mouse liver cancer H22; [5]): 0.38 g | TGITW (mouse liver cancer H22; [5]): 80% | Average value ± standard error of tumor weight (mouse liver cancer H22; [6]): 0.69 g | TGITW (mouse liver cancer H22; [6]): 63% | CD8^+ T cells/CD4^+ Treg [2]: 27.7 | Percentage of CD4^+ Treg in leucocytes [2]: 1.3% | Percentage of CD8^+ T cells in leucocytes [2]: 36.0% | proportions of CD4^+ Treg cells compared with Quanqi rhIL2 [2]: significantly decreased | proportions of CD8^+ T cells compared with Quanqi rhIL2 [2]: significantly increased | proportions of CD8^+ T/CD4^+ Treg compared with Quanqi rhIL2 [2]: significantly increased | Average value ± standard error of tumor weight [3, 5]: 0.32 g | TGITW [3, 5]: 88% | Average value ± standard error of tumor weight [3, 6]: 0.64 g | TGITW [3, 6]: 77%

Percentage change of EC50 ratio of YT/CTLL-2 cells of 30 KD PEG-rhIL2 sample (YT cells): 89%
Substance: 30 KD PEG-rhIL2-E61: rhIL-2 with unnatural amino acid NOPK at E61 site, coupled via oxime bond with 30 KD aminoxy PEG
